How the values were obtained:
[1] = test system: collagen in the skin of hairless mice; test: Collagen formation effect, skin tissue test for collagen proliferation promoting effect; format: in vivo; details: 0.1%(wt/wt) 1,3-BG solution applied to body of hairless mice
Procedure: To confirm the collagen formation effect of the synthesized 3,9-diferulylcoumestrol, 10 female hairless mice of 8week age were prepared. From the 2 mice, skin was taken out and standard dye samples were prepared using the side and middle part of the skin for investigation the collagen proliferation level. The other 8 mice were divided into two for the applied group and the control group.
In the same test condition, the whole body except head and belly of the applied group and the control group and were applied by 3,9-diferulycoumestrol 0.1%(wt/wt) 1,3-BG solution and 1,3-BG solution, for 15 days and 30 days.
From the applied group and the control group respectively, 2 mice were selected and their skins were cut out, then dyed samples were obtained from the side and middle part of the skin. After 30 days, skin dyed samples were obtained in the same way. For each of the obtained 10 dyed skin samples of the control group and the applied group, collagen proliferation promoting effect were compared on the basis of the skin condition of &week age. […] From the result, it was experimentally confirmed that 3,9diferulylcoumestrol is excellent in collagen synthesis and collagen proliferation promotion(FIG. 2)

[2] = test system: human-derived fibroblast(ATCC, Hs68); test: Cell toxicity and activity, MTT; format: cell-based; details: for Cell activity: at LD50
Procedure: Test cells of human-derived fibroblast(ATCC, Hs68) were cultivated in DMEM medium added by 10% FBS at 37° C. in the condition of 5%CO2, 100% humidity. 1×10^5 cells/ml of cells were seeded in 96 plate and incubated at 37° C. for 24 hr. Samples sterilized by 0.2 µm filter were added according to the fixed concentration and further incubated at 37° C. for 24 hr. Then, MTT regent was added and incubated at 37° C. for 4 hr, then the culture solution was removed. After, 1N NaOH isopropane solution was added and stirred for 20 min, the absorbance at 565 nm was measured. Then, the cell apoptosis concentration was determined by comparing the untreated cell (survival ratio: 100%).
Cell activity at LD50 was 20%, which was satisfactory level.

[3] = test system: tyrosinase; test: Tyrosinase inhibition effect (whitening activity); format: biochemical; details: 0.1%(wt/wt) sample solution; tyrosine 0.2 mg/ml, tyrosinase 680 units/ml, 37° C.
Procedure: And whitening activity and anti-oxidant activity were measured by determining tyrosinase inhibition effect and using NBT method. 0.1% vitamin C, 0.1% vitamin E, kojic acid and albutin were used as sample. […] A solution for blank test was tyrosine 1 ml+phosphoric acid buffer 1 ml+distilled water 1 ml. The procedure of the test is as follows. [table] 1) A,B and C are mixed and maintained at 37° C. for 30 min. 2) D is added and maintained for just 30 min. 3) After 10 min±10 sec, they are took out and the reaction ends in a refrigerating condition by ice. 4) when comparing the absorbance the comparative samples, the absorbencies of comparative group are tested and then those of blank test group are test(at […]). Tyrosinase activity inhibition effect(%) us calculated in the following way and the result is shown as Table 2. Tyrosinase activity inhibition effect (%): [1−(E−B/C)]×100 (B: blank test group, C: control group, E: test group)

[4] = Anti-oxidant effect, activated oxygen removal by NBT method; format: biochemical; details: 0.1%(wt/wt) sample solution; NBT absorbance at 560 nm; suppression ratio
Procedure: And whitening activity and anti-oxidant activity were measured by determining tyrosinase inhibition effect and using NBT method. 0.1% vitamin C, 0.1% vitamin E, kojic acid and albutin were used as sample. To determine anti-oxidant effect, activated oxygen produced from xanthine and xanthine oxidase were measured using NBT method and activated oxygen removal effect of the tested materials was determined. Activated oxygen was produced by xanthine and xanthine oxidase. The activated oxygen was determined by measuring the blue color produced from the reaction of the activated oxygen and Nitroblue tetrasolium (NBT) at 560 nm of wavelength. 6) Xanthines oxidase solution: xanthine oxidase(Boehringer) was diluted about 100 times so that its blank test absorbance within the range of 0.2-0.23. In other word, the purified water was diluted so that the absorbance change be A560=0.3/20 min. (1)1,2,3,4 and 5 are introduced into vial bottle and 0.1 ml of sample solution is added, which are maintained at 5° C. for 10 min. (2) It is added by 6 and stirred immediately, followed by 20 min of culture at 25° C. (3) After 7 is added, the reaction is stopped. Then, absorbance (St) at 560 nm is measured. (4) Blank test is carried out in the same way except distilled water is used instead of sample solution and absorbance (Bt) is measured. 5) Blank test for sample is carried out in the same way except distilled water is used instead of 6 and absorbance (Bo) is measured. The effect is calculated in the following way. Suppression ratio (%)=[1−(St−So)/(Bt−Bo)×100

[5] = 24 hr, diluted in 1,3-butylenglycol

| Molecule | Tyrosinase inhibition effect (%) [3] [%] | Cell activity [2] [%] | Anti-oxidant effect (%) [4] [%] | other results |
| --- | --- | --- | --- | --- |
| COc1cc(C=CC(=O)Oc2ccc3c(c2)oc(=O)c2c4ccc(OC(=O)C=Cc5ccc(O)c(OC)c5)cc4oc32)ccc1O [3,9-diferulylcoumestrol] | 76 | 20 | 42 | collagen synthesis and proliferation in skin ([1]; after 2 weeks (15 days), vs control groups): collagen synthesis and proliferation were found; collagen proliferation in corium layer and tissue density ([1]; after 30 days): collagen proliferation in corium layer was increased and the tissue density was raised; concentration range in which cell apoptosis did not show [2, 5]: ≤ 78 µM; concentration range in which cell apoptosis did not show (%) [2, 5]: ≤ 0.0048% |
| O=c1oc2cc(O)ccc2c2oc3cc(O)ccc3c12 [Coumestrol] | – | 20 | 28 | Evaluation (LD50) [2]: Safe; Evaluation (cell activity) [2]: excellent; LD50 % concentration ([2]; 24 hr): 0.0048%; LD50 mole concentration(mM) ([2]; 24 hr): 0.078 mM |
| Tocopherol | – | – | 43 | – |

Now from value to molecule, other results behind:

| Tyrosinase inhibition effect (%) [3] [%] | Molecule | Cell activity [2] [%] | Anti-oxidant effect (%) [4] [%] | other results |
| --- | --- | --- | --- | --- |
| 40 | OC[C@H]1O[C@@H](Oc2ccc(O)cc2)[C@H](O)[C@@H](O)[C@@H]1O [Albutin] | – | – | – |
| 30 | O=C1O[C@H]([C@@H](O)CO)C(O)=C1O [Ascorbic acid] | – | – | – |
| 91 | O=c1cc(CO)occ1O [Kojic acid] | – | – | – |

From patent publication US6503941B2, “Ferulic ester derivative, 3,9-diferulylcoumestrol and cosmetic product containing same” (Hanbul Cosmetics Co., Ltd., priority 2000, dated 2003)
